Laboratory results: patent US20250268903A1, “RXFP1 AGONISTS” (BRISTOL-MYERS SQUIBB COMPANY, priority 2021, published 2025)

The compounds below were run against T1, human RXFP1 (Homo sapiens, UniProt Q9HBX9) (assay: hRXFP1 HEK293 cAMP assay (HTRF)). Conditions: HEK293 cells stably expressing human RXFP1, 30 min at room temperature.
T1 construct: expressed in transfected cells
T1 sequence (Q9HBX9 1-757): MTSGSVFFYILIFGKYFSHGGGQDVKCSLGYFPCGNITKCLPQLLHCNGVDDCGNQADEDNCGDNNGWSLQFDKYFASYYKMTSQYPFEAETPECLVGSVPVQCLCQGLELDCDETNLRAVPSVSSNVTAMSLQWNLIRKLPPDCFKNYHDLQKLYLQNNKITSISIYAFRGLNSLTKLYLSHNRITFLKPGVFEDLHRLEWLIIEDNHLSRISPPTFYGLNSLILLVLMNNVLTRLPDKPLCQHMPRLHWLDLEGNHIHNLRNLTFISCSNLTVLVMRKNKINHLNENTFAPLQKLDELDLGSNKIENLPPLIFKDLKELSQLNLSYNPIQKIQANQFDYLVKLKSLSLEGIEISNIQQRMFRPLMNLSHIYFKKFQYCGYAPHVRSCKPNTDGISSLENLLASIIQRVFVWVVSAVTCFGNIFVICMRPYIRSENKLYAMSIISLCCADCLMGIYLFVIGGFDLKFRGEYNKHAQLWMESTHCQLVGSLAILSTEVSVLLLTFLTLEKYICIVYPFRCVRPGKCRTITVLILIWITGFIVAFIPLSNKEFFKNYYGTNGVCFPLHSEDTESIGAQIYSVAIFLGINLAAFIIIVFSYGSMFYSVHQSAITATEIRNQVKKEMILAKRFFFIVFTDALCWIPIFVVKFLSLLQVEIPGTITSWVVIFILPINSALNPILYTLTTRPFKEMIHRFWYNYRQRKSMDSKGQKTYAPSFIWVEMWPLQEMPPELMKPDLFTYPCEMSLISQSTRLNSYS
Assay type: cell-based
Outline: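 Potency and activity come from a four-parameter logistic fit of cAMP against compound concentration, tested from 0.010 nM up to 50 μM. The assay uses HEK293 cells stably expressing human RXFP1, incubated 30 min at ambient temperature with phosphodiesterase inhibitor IBMX present.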

Point of comparison: COc1ccc(CCCN(C(=O)OC(C)(C)C)C2CCC2)cc1C(=O)N[C@@H]1C2CCC(/C2=C/C(F)(F)F)[C@@H]1C(=O)Nc1ccc(F)c(C(F)(F)F)c1 (stereo partly drawn) [Example 120], EC50 304 nM. Against it:
- COc1ccc(CCC(O)C(F)(F)F)cc1C(=O)N[C@@H]1C2CCC(/C2=C/C(F)(F)F)[C@@H]1C(=O)Nc1ccc(F)c(C(F)(F)F)c1 (stereo partly drawn) [Example 100, (2S,3R,7Z)-N-[4-fluoro-3-(trifluoromethyl)phe-nyl]-3-[2-methoxy-5-(4,4,4-trifluoro-3-hydroxybutyl)benza-mido]-7-(2,2,2-trifluoroethylidene)bi-cyclo[2.2.1]heptane-2-carboxamide] — within 1.5-fold, 372 nM
- COc1ccc(CCCCCCOC(=O)NC2CCC2)cc1C(=O)N[C@@H]1C2CCC(/C2=C/C(F)(F)F)[C@@H]1C(=O)Nc1ccc(F)c(C(F)(F)F)c1 (stereo partly drawn) [Example 101, 6-(3-{[(2R,3S,7Z)-3-{[4-fluoro-3-(trifluoromethyl)phe-nyl]carbamoyl}-7-(2,2,2-trifluoroethylidene)bi-cyclo[2.2.1]heptan-2-yl]carbamoyl}-4-methoxyphenyl)hex-yl N-cyclobutylcarbamate] — 1.6-fold lower, 194 nM
- COc1ccc(CCCCOC(=O)NC2CCC2)cc1C(=O)N[C@@H]1C2CCC(/C2=C/C(F)(F)F)[C@@H]1C(=O)Nc1ccc(F)c(C(F)(F)F)c1 (stereo partly drawn) [Example 102, 4-(3-{[(2R,3S,7Z)-3-{[4-fluoro-3-(trifluoromethyl)phe-nyl]carbamoyl}-7-(2,2,2-trifluoroethylidene)bi-cyclo[2.2.1]heptan-2-yl]carbamoyl}-4-methoxyphenyl)butyl N-cyclobutylcarbamate] — within 1.5-fold, 439 nM
- COc1ccc(CCCCCOC(=O)NC2CCC2)cc1C(=O)N[C@@H]1C2CCC(/C2=C/C(F)(F)F)[C@@H]1C(=O)Nc1ccc(F)c(C(F)(F)F)c1 (stereo partly drawn) [Example 103, 5-(3-{[(2R,3S,7Z)-3-{[4-fluoro-3-(trifluoromethyl)phe-nyl]carbamoyl}-7-(2,2,2-trifluoroethylidene)bi-cyclo[2.2.1]heptan-2-yl]carbamoyl}-4-methoxyphenyl)pent-yl N-cyclobutylcarbamate] — 2.4-fold higher, 725 nM
- COc1ccc(CCCOc2ccncc2)cc1C(=O)NC1C2CCC(/C2=C/C(F)(F)F)[C@@H]1C(=O)Nc1ccc(F)c(C(F)(F)F)c1 (stereo partly drawn) [Example 104] — 3.2-fold higher, 988 nM
- COc1ccc(CCCOc2nc3ccccc3n2C)cc1C(=O)N[C@@H]1C2CCC(/C2=C/C(F)(F)F)[C@@H]1C(=O)Nc1ccc(F)c(C(F)(F)F)c1 (stereo partly drawn) [Example 105, (2S,3R,7Z)-N-[4-fluoro-3-(trifluoromethyl)phe-nyl]-3-(2-methoxy-5-{3-[(1-methyl-1H-1,3-benzodiazol-2-yl)oxy]propyl}benza-mido)-7-(2,2,2-trifluoroethylidene)bi-cyclo[2.2.1]heptane-2-carboxamide] — 5.4-fold higher, 1640 nM
- O=C(N[C@H]1[C@@H](C(=O)Nc2ccc(F)c(C(F)(F)F)c2)[C@H]2CC[C@@H]1/C2=C\C(F)(F)F)c1cc(C#CCO)ccc1OCCO [Example 106, (1R,2S,3R,4R,Z)—N-(4-fluoro-3-(trifluoromethyl)phenyl)-3-(2-(2-hydroxyethoxy)-5-(3-hydroxyprop-1-yn-1-yl)benzamido)-7-(2,2,2-trifluoroethylidene) bicyclo[2.2.1]heptane-2-carboxamide] — within 1.5-fold, 377 nM
- O=C(N[C@@H]1C2CCC(/C2=C/C(F)(F)F)[C@@H]1C(=O)Nc1ccc(F)c(C(F)(F)F)c1)c1cc(CCCO)ccc1OCCO (stereo partly drawn) [Example 107, (2S,3R,7Z)-N-[4-fluoro-3-(trifluoromethyl)phe-nyl]-3-[2-(2-hydroxyethoxy)-5-(3-hydroxypropyl)benz-amido]-7-(2,2,2-trifluoroethylidene)bi-cyclo[2.2.1]heptane-2-carboxamide] — 2.7-fold higher, 815 nM
- CCCc1ccc(OCCO)c(C(=O)N[C@@H]2C3CCC(/C3=C/C(F)(F)F)[C@@H]2C(=O)Nc2ccc(F)c(C(F)(F)F)c2)c1 (stereo partly drawn) [Example 108, (2S,3R,7Z)-N-[4-fluoro-3-(trifluoromethyl)phe-nyl]-3-[2-(2-hydroxyethoxy)-5-propylbenzamido]-7-(2,2,2-trifluoroethylidene)bi-cyclo[2.2.1]heptane-2-carboxamide] — 7.5-fold higher, 2270 nM
- COc1ccc(CCCNC(=O)OC(C)(C)C)cc1C(=O)N[C@@H]1C2CCC(/C2=C/C(F)(F)F)[C@@H]1C(=O)Nc1ccc(F)c(C(F)(F)F)c1 (stereo partly drawn) [Example 109] — 6.8-fold higher, 2080 nM
- COc1ccc(CCCN)cc1C(=O)N[C@H]1[C@@H](C(=O)Nc2ccc(F)c(C(F)(F)F)c2)[C@H]2CC[C@@H]1/C2=C\C(F)(F)F [Example 110, (1R,2S,3R,4R,Z)-3-(5-(3-aminopropyl)-2-methoxybenzamido)-N-(4-fluoro-3-(trifluoromethyl)phenyl)-7-(2,2,2-trifluoroethylidene) bicyclo[2.2.1]heptane-2-carboxamide] — 8.3-fold higher, 2520 nM
- COc1ccc(CCCNC(=O)[C@@H](C)O)cc1C(=O)N[C@H]1[C@@H](C(=O)Nc2ccc(F)c(C(F)(F)F)c2)[C@H]2CC[C@@H]1/C2=C\C(F)(F)F [Example 111, (1R,2S,3R,4R,Z)—N-(4-fluoro-3-(trifluoromethyl)phenyl)-3-(5-(3-((R)-2-hydroxypropanamido)propyl)-2-methoxybenzamido)-7-(2,2,2-trifluoroethylidene) bicyclo[2.2.1]heptane-2-carboxamide] — 2.9-fold lower, 106 nM
- COc1ccc(CCCNC(=O)C2CCC2)cc1C(=O)N[C@@H]1C2CCC(/C2=C/C(F)(F)F)[C@@H]1C(=O)Nc1ccc(F)c(C(F)(F)F)c1 (stereo partly drawn) [Example 112, (2S,3R,7Z)-3-{5-[3-(cyclobutylformami-do)propyl]-2-methoxybenzamido}-N-[4-fluoro-3-(trifluoromethyl)phe-nyl]-7-(2,2,2-trifluoroethylidene)bi-cyclo[2.2.1]heptane-2-carboxamide] — within 1.5-fold, 324 nM
- COc1ccc(CCCNC(=O)C(C)(C)O)cc1C(=O)N[C@@H]1C2CCC(/C2=C/C(F)(F)F)[C@@H]1C(=O)Nc1ccc(F)c(C(F)(F)F)c1 (stereo partly drawn) [Example 113, (2S,3R,7Z)-N-[4-fluoro-3-(trifluoromethyl)phe-nyl]-3-{5-[3-(2-hydroxy-2-methylpropanamido)propyl]-2-methoxybenzamido}-7-(2,2,2-trifluoroethylidene)bi-cyclo[2.2.1]heptane-2-carboxamide] — within 1.5-fold, 341 nM
- COc1ccc(CCCNC(=O)[C@H](C)O)cc1C(=O)N[C@@H]1C2CCC(/C2=C/C(F)(F)F)[C@@H]1C(=O)Nc1ccc(F)c(C(F)(F)F)c1 (stereo partly drawn) [Example 114] — 1.5-fold higher, 457 nM
- COc1ccc(CCCNC(=O)C2CCOCC2)cc1C(=O)N[C@@H]1C2CCC(/C2=C/C(F)(F)F)[C@@H]1C(=O)Nc1ccc(F)c(C(F)(F)F)c1 (stereo partly drawn) [Example 115, N-[3-(3-{[(2R,3S,7Z)-3-{[4-fluoro-3-(trifluoromethyl)phe-nyl]carbamoyl}-7-(2,2,2-trifluoroethylidene)bi-cyclo[2.2.1]heptan-2-yl]carbamoyl}-4-methoxyphenyl)pro-pyl]oxane-4-carboxamide] — 1.8-fold higher, 536 nM
- COc1ccc(CCCNC(=O)CO)cc1C(=O)N[C@@H]1C2CCC(/C2=C/C(F)(F)F)[C@@H]1C(=O)Nc1ccc(F)c(C(F)(F)F)c1 (stereo partly drawn) [Example 116, (2S,3R,7Z)-N-[4-fluoro-3-(trifluoromethyl)phe-nyl]-3-{5-[3-(2-hydroxyacetamido)pro-pyl]-2-methoxybenzamido}-7-(2,2,2-trifluoroethylidene)bi-cyclo[2.2.1]heptane-2-carboxamide] — 3.1-fold higher, 940 nM
- COc1ccc(CCCNCC(O)(C(F)(F)F)C(F)(F)F)cc1C(=O)N[C@H]1[C@@H](C(=O)Nc2ccc(F)c(C(F)(F)F)c2)[C@H]2CC[C@@H]1/C2=C\C(F)(F)F [Example 117, (1R,2S,3R,4R,Z)—N-(4-fluoro-3-(trifluoromethyl)phenyl)-3-(2-methoxy-5-(3-((3,3,3-trifluoro-2-hydroxy-2-(trifluoromethyl)propyl)amino)propyl)benzamido)-7-(2,2,2-trifluoroethylidene) bicyclo[2.2.1]heptane-2-carboxamide] — 4.1-fold higher, 1240 nM
- COc1ccc(CCCNC[C@H](O)C(F)(F)F)cc1C(=O)N[C@@H]1C2CCC(/C2=C/C(F)(F)F)[C@@H]1C(=O)Nc1ccc(F)c(C(F)(F)F)c1 (stereo partly drawn) [Example 118, (2S,3R,7Z)-N-[4-fluoro-3-(trifluoromethyl)phe-nyl]-3-[2-methoxy-5-(3-{[(2S)-3,3,3-trifluoro-2-hydroxypropyl]amino}propyl)benzamido]-7-(2,2,2-trifluoroethylidene)bi-cyclo[2.2.1]heptane-2-carboxamide] — 5.9-fold higher, 1780 nM
- COc1ccc(CCCNC[C@@H](O)C(F)(F)F)cc1C(=O)N[C@@H]1C2CCC(/C2=C/C(F)(F)F)[C@@H]1C(=O)Nc1ccc(F)c(C(F)(F)F)c1 (stereo partly drawn) [Example 119, (2S,3R,7Z)-N-[4-fluoro-3-(trifluoromethyl)phe-nyl]-3-[2-methoxy-5-(3-{[(2R)-3,3,3-trifluoro-2-hydroxypropyl]amino}propyl)benzamido]-7-(2,2,2-trifluoroethylidene)bi-cyclo[2.2.1]heptane-2-carboxamide] — 5.9-fold higher, 1800 nM
